Test results published in ChEMBL document CHEMBL1151144, “Annonaceous acetogenins: a review” (J Nat Prod, 1990).
In brackets after ≈: the same amount, converted by molar mass.

What was measured:
[1] = tested on: A549; experiment: Cytotoxicity against human A549 cells; format: functional; conditions: Homo sapiens, A549; read-out: ED50 (the source's name)
[2] = Cytotoxicity against mouse 9PS cells; format: functional; conditions: for EC50: Mus musculus, read-out: ED50 (the source's name)
[3] = tested on: HT-29; experiment: Cytotoxicity against human HT-29 cells; format: functional; conditions: Homo sapiens, HT-29; read-out: ED50 (the source's name)
[4] = In vivo antitumor activity against mouse 3PS cells at 0.25 mg/kg relative to control; format: functional
[5] = tested on: L1210; experiment: Cytotoxicity against mouse L1210 cells; format: functional; conditions: read-out: ED50 (the source's name)
[6] = tested on: Artemia; experiment: Toxicity against brine shrimp; format: organism-based; conditions: in vivo
[7] = Cytotoxicity against human 9KB cells; format: functional; conditions: Homo sapiens, 9KB; read-out: ED50 (the source's name)
[8] = tested on: Plasmodium falciparum; experiment: Antiplasmodial activity against chloroquine-sensitive Plasmodium falciparum W2; format: functional, organism-based
[9] = tested on: Plasmodium falciparum; experiment: Antiplasmodial activity against chloroquine-sensitive Plasmodium falciparum D6; format: functional, organism-based
[10] = In vivo antitumor activity against mouse 3PS cells at 1.4 mg/kg relative to control; format: functional

Compound `CCCCCCCCCCCC[C@H](O)[C@@H]1CC[C@@H]([C@@H](O)CCCCC(O)CCCCCC2CC(CC(C)=O)C(=O)O2)O1` (some centres not stated) [ISOANNONACIN] has an EC50 [1] of 0.02 µg/mL (≈ 0.0335 µM), an EC50 [2] of 3 µg/mL (≈ 5.03 µM) and an EC50 [3] of 2 ng/mL (≈ 0.00335 µM).
With `CCCCCCC(O)CCCC(O)C1CCC(C2CCC(C(O)CCCCCCCCCCCCC3=CC(C)OC3=O)O2)O1` (configuration not stated) [ISOROLLINICIN] the EC50 [2] was 0.01 µg/mL (≈ 0.0161 µM).
With `CCCCCCCCCC[C@@H](O)[C@@H]1CC[C@H]([C@H]2CC[C@@H]([C@@H](O)CCCCCCCCCC[C@H](O)CC3=C[C@@H](C)OC3=O)O2)O1` [ROLLINIASTATIN 1] the ED50 [2] was 4.5 ×10⁻⁵ ug/ml and the T/C [4] was 128%.
Work on `CCCCCCCCC[C@@H](OC(C)=O)[C@H](OC(C)=O)[C@@H]1CC[C@@H]([C@@H]2CC[C@@H]([C@@H](CCCCCCCCCCCCC3=CC(C)OC3=O)OC(C)=O)O2)O1` (some centres not stated) [ROLLINICIN TRIACETATE] yielded an ED50 [2] of 2.6 ×10⁻⁴ ug/ml.
Compound `CCCCCCCCC[C@@H](O)[C@@H](O)[C@@H]1CC[C@@H]([C@@H]2CC[C@@H]([C@@H](O)CCCCCCCCCCCCC3=CC(C)OC3=O)O2)O1` (some centres not stated) [ROLLINICIN] has an ED50 [2] of 2.9 ×10⁻⁸ ug/ml.
Work on `CCCCCC[C@H](O)CCC[C@H](O)[C@H]1CC[C@H]([C@H]2CC[C@H]([C@H](O)CCCCCCCCCCCCC3=C[C@H](C)OC3=O)O2)O1` [SQUAMOCIN] yielded an EC50 [5] of 0.58 µg/mL (≈ 0.931 µM).
`CCCCCCCCCCCC[C@H](O)[C@@H]1CC[C@@H]([C@@H](O)CCCCCC(=O)CCCCC2CC(CC(C)=O)C(=O)O2)O1` (some centres not stated) [SQUAMONE] gave an LC50 [6] of 2.1 ppm.
Work on `CCCCCCCCCC[C@@H](O)[C@@H]1CC[C@H]([C@H](O)CC[C@H](O)[C@@H]2CC[C@@H](CCCCCCC[C@@H](O)CC3=C[C@H](C)OC3=O)O2)O1` [SYLVATICIN] yielded an EC50 [7] of less than 1 ng/mL, an EC50 [1] of less than 0.001 µg/mL and an LC50 [6] of 26 ppm. For the same compound, the EC50 [3] was less than 1 ng/mL.
Work on `CN(C)[C@@H]1C(O)=C(C(N)=O)C(=O)[C@@]2(O)C(O)=C3C(=O)c4c(O)cccc4[C@@](C)(O)[C@H]3C[C@@H]12` [TETRACYCLINE] yielded an IC50 [8] of 5.39 µg/mL (≈ 12.1 µM) and an IC50 [9] of 3.36 µg/mL (≈ 7.57 µM).
Work on `CCCCCCCCCC[C@H](OC(C)=O)[C@H]1CC[C@H]([C@H]2CC[C@H]([C@H](O)CCCCCCCCCCCCC3=C[C@H](C)OC3=O)O2)O1` [UVARICIN] yielded a T/C [10] of 157%.
